We go through 32 compounds from US10654847B2, “Substituted 2-(4-heterocyclylbenzyl)isoindolin-1-one analogs as positive allosteric modulators of the muscarinic acetylcholine receptor M1” (Vanderbilt University, priority 2011, dated 2020).

Where two headings read alike, the source gives them in different places.

This assay addresses T1, mAChR M1 (UniProt P11229).
T1 sequence (P11229 1-460): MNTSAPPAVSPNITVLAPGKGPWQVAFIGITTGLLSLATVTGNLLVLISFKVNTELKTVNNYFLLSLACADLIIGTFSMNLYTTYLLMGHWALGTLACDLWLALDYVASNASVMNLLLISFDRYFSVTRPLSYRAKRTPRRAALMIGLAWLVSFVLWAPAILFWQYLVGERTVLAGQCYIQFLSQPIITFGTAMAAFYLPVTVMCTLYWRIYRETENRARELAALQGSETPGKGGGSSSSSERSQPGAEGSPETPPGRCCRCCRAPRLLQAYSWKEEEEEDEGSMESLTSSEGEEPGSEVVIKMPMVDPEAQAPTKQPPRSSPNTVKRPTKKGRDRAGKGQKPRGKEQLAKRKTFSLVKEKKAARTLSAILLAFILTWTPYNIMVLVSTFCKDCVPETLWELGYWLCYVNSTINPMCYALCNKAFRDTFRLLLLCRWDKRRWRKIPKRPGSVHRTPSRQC
The experiment in a line: mAChR M1 cell-based functional assay (calcium mobilization, potentiation of EC20 acetylcholine response). The following applies: for Emax (%): % ACh maximum at 30 μM, mAChR M1-expressing CHO-K1 cells, calcium flux; for pEC50 / EC50: positive allosteric modulation of EC20 ACh response, mAChR M1 CHO-K1 cells; for pEC50: <5 estimated where no plateau; for EC50: >10 μM estimated where no plateau. The procedure: Chinese hamster ovary (CHO-K1) cells stably expressing rat (r)M1 were purchased from the American Type Culture Collection and cultured according to their indicated protocol. […] To make stable rM2, hM2, rM3, hM4, and rM4 cell lines for use in calcium mobilization assays, these cells also were stably transfected with a chimeric G-protein (Gqi5) (provided by B. R. Conklin, University of California, San Francisco) using Lipofectamine 2000. rM1, hM1, rM3, hM3, rM5, and hM5 cells were grown in Ham's F-12 medium containing 10% heat-inactivated fetal bovine serum (FBS), 20 mM HEPES, and 50 μg/mL G418 sulfate. rM2-Gqi5, hM2-Gqi5, and hM4-Gqi5 cells were grown in the same medium also containing 500 μg/mL Hygromycin B. Stable rM4-Gqi5 cells were grown in DMEM containing 10% heat-inactivated FBS, 20 mM HEPES, 400 μg/mL G418 sulfate, and 500 μg/mL Hygromycin B.
For high throughput measurement of agonist-evoked increases in intracellular calcium, CHO-K1 cells stably expressing muscarinic receptors were plated in growth medium lacking G418 and hygromycin at 15,000 cells/20 μL/well in Greiner 384-well black-walled, tissue culture (TC)-treated, clear-bottom plates (VWR). Cells were incubated overnight at 37° C. and 5% CO2. […] Compound master plates were formatted in an 11 point CRC format (1:3 dilutions) in 100% DMSO with a starting concentration of 10 mM using the BRAVO liquid handler (Agilent). Test compound CRCs were then transferred to daughter plates (240 nL) using the Echo acoustic plate reformatter (Labcyte, Sunnyvale, Calif.) and then diluted into assay buffer (40 μL) to a 2× stock using a Thermo Fisher Combi (Thermo Fisher Scientific, Waltham, Mass.).
Calcium flux was measured using the Functional Drug Screening System (FDSS) 6000 (Hamamatsu Corporation, Tokyo, Japan) as an increase in the fluorescent static ratio. Compounds were applied to cells (20 μL, 2×) using the automated system of the FDSS 6000 at 4 s into the 300 s protocol and the data were collected at 1 Hz. […] Agonist activity was analyzed as a concentration-dependent increase in calcium mobilization upon compound addition. Positive allosteric modulator activity was analyzed as a concentration-dependent increase in the EC20 acetylcholine response. Antagonist activity was analyzed as a concentration-dependent decrease in the EC80 acetylcholine response. Concentration-response curves were generated using a four-parameter logistical equation in XLfit curve fitting software (IDBS, Bridgewater, N.J.) for Excel (Microsoft, Redmond, Wash.) or Prism (GraphPad Software, Inc., San Diego, Calif.).
The above described assay was also operated in a second mode where an appropriate fixed concentration of the present compounds were added to the cells after establishment of a fluorescence baseline for about 3 seconds, and the response in cells was measured. […] Data were reduced as described above and the EC50 values for the agonist in the presence of test compound were determined by nonlinear curve fitting. A decrease in the EC50 value of the agonist with increasing concentrations of the present compounds (a leftward shift of the agonist concentration-response curve) is an indication of the degree of muscarinic positive allosteric modulation at a given concentration of the present compound. An increase in the EC50 value of the agonist with increasing concentrations of the present compounds (a rightward shift of the agonist concentration response curve) is an indication of the degree of muscarinic antagonism at a given concentration of the present compound. The second mode also indicates whether the present compounds also affect the maximum response of the muscarinic receptor to agonists.
The calcium mobilization assay was also used to determine “efficacy”.

Take `O=C1c2cccnc2CN1Cc1ccc(-c2ccc3ncccc3c2)cc1F` [Example B48]: the “Emax (%)” value is recorded as 65% and the pEC50 was 6.08. Moreover, the EC50 (read-out: EC50) is 832 nM.

As to `O=C1c2cccnc2CN1Cc1c(F)cc(-c2cccc3nccn23)cc1F` [Example B89], the “Emax (%)” value came out at 48% and the pEC50 is reported as <5.00. Further, where the note is “read-out: EC50”, the concentration for a half-maximal effect (EC50) is > 10000 nM.

`CC1c2ccccc2C(=O)N1Cc1ccc(-c2cnn(C)c2)cc1F` (stereo not drawn) [Example B113]: the “Emax (%)” value was <30% and the pEC50 was <5.00. Further, the EC50 (read-out: EC50) is > 10000 nM.

In the case of `Cn1cc2c(-c3cccc(CN4Cc5ncccc5C4=O)c3F)cccc2n1` [Example B109], the “Emax (%)” value is reported as 36% and the pEC50 is 5.14. For the same compound, the EC50 (read-out: EC50) was 7240 nM.

Turning to `O=C1c2ncccc2CN1Cc1ccc(-c2cncc(Cl)c2)cc1F` [Example B73], the “Emax (%)” value worked out at 38% and the pEC50 is on record as <5.00. Also, under “read-out: EC50”, the EC50 was > 10000 nM.

Regarding `O=S1(=O)c2ccccc2CN1Cc1ccc(-n2cccn2)cc1` [Example B115], the “Emax (%)” value is on record as <30% and the negative logarithm of the EC50 (pEC50) was <5.00. Also, the concentration giving a half-maximal response (EC50) (read-out: EC50) was > 10000 nM.

Consider `CN1Cc2ccc(-c3cc(F)c(CN4Cc5ncccc5C4=O)c(F)c3)cc2C1` [Example B107], for which the “Emax (%)” value came out at 56% and the pEC50 is recorded as 5.76. For the same compound, the EC50 (read-out: EC50) is 1740 nM.

For the compound `O=S1(=O)c2ccccc2CN1Cc1ccc(-c2cnns2)cc1` [Example B117], the “Emax (%)” value was <30% and the pEC50 was <5.00. Also, the half-maximal effective concentration (EC50) (read-out: EC50) was > 10000 nM.

For the compound `Cn1cc2cc(-c3cc(F)c(CN4Cc5ncccc5C4=O)c(F)c3)ccc2n1` [Example B51], the “Emax (%)” value amounted to 73% and the pEC50 is 6.59. Also, for the setting “read-out: EC50”, the EC50 is 257 nM.

As for `Cn1cnc2ccc(-c3cc(F)c(CN4Cc5ncccc5C4=O)c(F)c3)cc21` [Example B82], the “Emax (%)” value was 72% and the pEC50 was 6.40. The EC50 (read-out: EC50) is 398 nM.

As to `Cn1cc2cc(-c3ccc(CN4Cc5ncncc5C4=O)c(F)c3)ccc2n1` [Example B56], the “Emax (%)” value turned out to be 80% and the pEC50 is listed as 6.40. The EC50 (read-out: EC50) is 398 nM.

As for `Cn1cc2ccc(-c3ccc(CN4Cc5cccnc5C4=O)c(F)c3)cc2n1` [Example B72], the “Emax (%)” value worked out at 79% and the pEC50 is given as 5.70. In addition, the EC50 (read-out: EC50) was 2000 nM.

Regarding `Cn1cc(-c2cnc(CN3Cc4ccccc4C3=O)c(F)c2)cn1` [Example B21], the “Emax (%)” value amounted to 43% and the pEC50 is listed as <5.00. In addition, the EC50 (read-out: EC50) was > 10000 nM.

As for `CSc1ncc(-c2ccc(CN3Cc4ccccc4C3=O)c(F)c2)cn1` [Example B122], the “Emax (%)” value is <30% and the pEC50 is listed as <5.00. For the same compound, the concentration giving a half-maximal response (EC50) (read-out: EC50) was > 10000 nM.

On to `Cc1cc(-c2cnc(Cl)c(C)c2)ccc1CN1Cc2cccnc2C1=O` [Example B83], for which the “Emax (%)” value was determined as 34% and the pEC50 was <5.00. Where the note is “read-out: EC50”, the EC50 was > 10000 nM.

Turning to `O=C1c2ccccc2CN1Cc1ccc(-c2ccc3cnccc3c2)cc1F` [Example B6], the “Emax (%)” value was 38% and the negative logarithm of the EC50 (pEC50) is recorded as 5.59. Besides, the EC50 (read-out: EC50) is 2600 nM.

`COc1ccc(-c2ccc(CN3Cc4ncccc4C3=O)c(F)c2)cc1` [Example B50]: the “Emax (%)” value was found to be 34% and the pEC50 is recorded as 6.01. Besides, the EC50 (read-out: EC50) is 977 nM.

Take `Cc1n[nH]c2ccc(-c3cc(F)c(CN4Cc5ncccc5C4=O)c(F)c3)cc12` [Example B102]: the “Emax (%)” value is reported as 68% and the pEC50 is on record as 6.91. In addition, where the note is “read-out: EC50”, the EC50 was 123 nM.

In the case of `Cn1ncc2ccc(-c3ccc(CN4Cc5ccccc5C4=O)c(F)c3)cc21` [Example B24], the “Emax (%)” value is on record as 64% and the pEC50 is <5.00. In addition, the EC50 (read-out: EC50) was > 10000 nM.

`O=C1c2cccnc2CN1Cc1ccc(-c2cncc(Cl)c2)cc1F` [Example B31]: the “Emax (%)” value turned out to be 35% and the pEC50 is reported as 5.34. Moreover, the EC50 (read-out: EC50) was 4570 nM.

For the compound `O=C1c2ncccc2CN1Cc1ccc(-c2cccnc2)cc1F` [Example B64], the “Emax (%)” value came to 50% and the pEC50 is recorded as <5.00. In addition, the EC50 (read-out: EC50) was > 10000 nM.

For `Cc1cc(-c2cccnc2)ccc1CN1Cc2cccnc2C1=O` [Example B85], the “Emax (%)” value is given as 41% and the negative logarithm of the EC50 (pEC50) is reported as <5.00. Also, the EC50 (read-out: EC50) is > 10000 nM.

As for `O=C1c2cccnc2CN1Cc1ccc(-c2cccc3cccnc23)cc1F` [Example B38], the “Emax (%)” value is 26% and the pEC50 was <5.00. The EC50 (read-out: EC50) was > 10000 nM.

`CN1CCc2cc(-c3ccc(CN4Cc5ncccc5C4=O)c(F)c3)ccc21` [Example B55]: the “Emax (%)” value came out at 60%, the pEC50 is 5.64 and the concentration for a half-maximal effect (EC50) is 2290 nM.

As to `Cn1cc2cc(-c3ccc(F)c(CN4Cc5ncccc5C4=O)c3)ccc2n1` [Example B111], the “Emax (%)” value was 42% and the pEC50 is reported as 5.63. Where the note is “read-out: EC50”, the EC50 was 2340 nM.

For `CC(c1ccc(-c2cnn(C)c2)cc1F)N1Cc2ccccc2C1=O` (stereo not drawn) [Example B13, 2-(1-(2-fluoro-4-(1-methyl-1H-pyrazol-4-yl)phenyl)ethyl)isoindolin-1-one], the “Emax (%)” value is given as 35% and the pEC50 is given as <5.00. Also, the EC50 (read-out: EC50) was > 10000 nM.

On to `O=C1c2cccnc2CN1Cc1ccc(-c2ccc3cncn3c2)cc1F` [Example B92], for which the “Emax (%)” value came out at 62% and the negative logarithm of the EC50 (pEC50) is listed as 6.06. Moreover, the EC50 (read-out: EC50) is 871 nM.

For the compound `Cn1cc2c(-c3ccc(F)c(CN4Cc5ncccc5C4=O)c3)cccc2n1` [Example B110], the “Emax (%)” value is on record as 61% and the pEC50 is 5.71. Moreover, where the note is “read-out: EC50”, the concentration for a half-maximal effect (EC50) is 1950 nM.

For the compound `CN(C)c1ccc(-c2ccc(CN3Cc4ncccc4C3=O)c(F)c2)cc1` [Example B52], the “Emax (%)” value amounted to 53% and the pEC50 was <5.00. Also, the concentration giving a half-maximal response (EC50) (read-out: EC50) is > 10000 nM.

On to `O=C1c2cccnc2CN1Cc1c(F)cc(-c2ccc3c(c2)C2(OCCO2)C(=O)N3)cc1F` [Example B101], for which the “Emax (%)” value came to 48% and the negative logarithm of the EC50 (pEC50) is <5.00. Also, the concentration giving a half-maximal response (EC50) (read-out: EC50) was > 10000 nM.

Regarding `Cn1cc2c(-c3ccc(CN4Cc5cccnc5C4=O)c(F)c3)cccc2n1` [Example B62], the “Emax (%)” value was found to be 72% and the negative logarithm of the EC50 (pEC50) was 6.07. Also, the concentration for a half-maximal effect (EC50) (read-out: EC50) is 851 nM.

For `O=C1c2ccccc2CN1Cc1ccc(-n2cncn2)cc1F` [Example B126], the “Emax (%)” value is reported as <30% and the pEC50 was <5.00. In addition, the EC50 (read-out: EC50) was > 10000 nM.
